# Laboratory results published in patent US20090253709A1 (NATIONAL DEFENSE MEDICAL CENTER, priority 2008, published 2009).
# Test system: A498
# Assay: In vitro cytotoxicity, Development Therapeutics Program
# Format: cell-based
# Conditions: A498, renal cancer; 1.0×10^−5 M
# Excerpt: (§1) From the in vitro experiments of the Development Therapeutics Program of the Cancer Research Institute, the United States, it was known that the synthetic heterocyclic anthraquinone derivatives of the present invention have different inhibition levels to the different cancer cell lines under the concentration of 1.0×10^−5 M. Please refer to Table 2, which is the result of in vitro cytotoxicity of 2,7-disubstituted anthraquinone derivatives of the present invention.
row,SMILES,Cellular growth rate (%)
1,"CCN(CC)CCC(=O)Nc1ccc2c(c1)C(=O)c1cc(NC(=O)CCN(CC)CC)ccc1C2=O [Compound 16, 2,7-Bis[3-(diethylamino)propionamido]anthraquinone]",−38.76

# Test system: BT-549
# Assay: as above
# Format: cell-based
# Conditions: BT-549, breast cancer; 1.0×10^−5 M
# Excerpt: as §1
row,SMILES,Cellular growth rate (%)
1,"CCN(CC)CCC(=O)Nc1ccc2c(c1)C(=O)c1cc(NC(=O)CCN(CC)CC)ccc1C2=O [Compound 16, 2,7-Bis[3-(diethylamino)propionamido]anthraquinone]",57.04

# Test system: CAK1-1
# Assay: as above
# Format: cell-based
# Conditions: CAK1-1, renal cancer; 1.0×10^−5 M
# Excerpt: as §1
row,SMILES,Cellular growth rate (%)
1,"CCN(CC)CCC(=O)Nc1ccc2c(c1)C(=O)c1cc(NC(=O)CCN(CC)CC)ccc1C2=O [Compound 16, 2,7-Bis[3-(diethylamino)propionamido]anthraquinone]",3.27

# Test system: DU-145
# Assay: as above
# Format: cell-based
# Conditions: DU-145, prostate cancer; 1.0×10^−5 M
# Excerpt: as §1
row,SMILES,Cellular growth rate (%)
1,"CCN(CC)CCC(=O)Nc1ccc2c(c1)C(=O)c1cc(NC(=O)CCN(CC)CC)ccc1C2=O [Compound 16, 2,7-Bis[3-(diethylamino)propionamido]anthraquinone]",10.20

# Test system: HCC-2998
# Assay: as above
# Format: cell-based
# Conditions: HCC-2998, colon cancer; 1.0×10^−5 M
# Excerpt: as §1
row,SMILES,Cellular growth rate (%)
1,"CCN(CC)CCC(=O)Nc1ccc2c(c1)C(=O)c1cc(NC(=O)CCN(CC)CC)ccc1C2=O [Compound 16, 2,7-Bis[3-(diethylamino)propionamido]anthraquinone]",−87.42

# Test system: HCT-116
# Assay: as above
# Format: cell-based
# Conditions: HCT-116, colon cancer; 1.0×10^−5 M
# Excerpt: as §1
row,SMILES,Cellular growth rate (%)
1,"CCN(CC)CCC(=O)Nc1ccc2c(c1)C(=O)c1cc(NC(=O)CCN(CC)CC)ccc1C2=O [Compound 16, 2,7-Bis[3-(diethylamino)propionamido]anthraquinone]",−32.45

# Test system: HCT-15
# Assay: as above
# Format: cell-based
# Conditions: HCT-15, colon cancer; 1.0×10^−5 M
# Excerpt: as §1
row,SMILES,Cellular growth rate (%)
1,"CCN(CC)CCC(=O)Nc1ccc2c(c1)C(=O)c1cc(NC(=O)CCN(CC)CC)ccc1C2=O [Compound 16, 2,7-Bis[3-(diethylamino)propionamido]anthraquinone]",17.42

# Test system: HL-60(TB)
# Assay: as above
# Format: cell-based
# Conditions: leukemia, 1.0×10^−5 M
# Excerpt: as §1
row,SMILES,Cellular growth rate (%)
1,"CCN(CC)CCC(=O)Nc1ccc2c(c1)C(=O)c1cc(NC(=O)CCN(CC)CC)ccc1C2=O [Compound 16, 2,7-Bis[3-(diethylamino)propionamido]anthraquinone]",14.01

# Test system: HOP-62
# Assay: as above
# Format: cell-based
# Conditions: HOP-62, non-small cell lung cancer; 1.0×10^−5 M
# Excerpt: as §1
row,SMILES,Cellular growth rate (%)
1,"CCN(CC)CCC(=O)Nc1ccc2c(c1)C(=O)c1cc(NC(=O)CCN(CC)CC)ccc1C2=O [Compound 16, 2,7-Bis[3-(diethylamino)propionamido]anthraquinone]",11.65

# Test system: HOP-92
# Assay: as above
# Format: cell-based
# Conditions: HOP-92, non-small cell lung cancer; 1.0×10^−5 M
# Excerpt: as §1
row,SMILES,Cellular growth rate (%)
1,"CCN(CC)CCC(=O)Nc1ccc2c(c1)C(=O)c1cc(NC(=O)CCN(CC)CC)ccc1C2=O [Compound 16, 2,7-Bis[3-(diethylamino)propionamido]anthraquinone]",9.70

# Test system: HS 578T
# Assay: as above
# Format: cell-based
# Conditions: breast cancer, 1.0×10^−5 M
# Excerpt: as §1
row,SMILES,Cellular growth rate (%)
1,"CCN(CC)CCC(=O)Nc1ccc2c(c1)C(=O)c1cc(NC(=O)CCN(CC)CC)ccc1C2=O [Compound 16, 2,7-Bis[3-(diethylamino)propionamido]anthraquinone]",−23.77

# Test system: HT29
# Assay: as above
# Format: cell-based
# Conditions: HT29, colon cancer; 1.0×10^−5 M
# Excerpt: as §1
row,SMILES,Cellular growth rate (%)
1,"CCN(CC)CCC(=O)Nc1ccc2c(c1)C(=O)c1cc(NC(=O)CCN(CC)CC)ccc1C2=O [Compound 16, 2,7-Bis[3-(diethylamino)propionamido]anthraquinone]",3.30

# Test system: K-562
# Assay: as above
# Format: cell-based
# Conditions: K-562, leukemia; 1.0×10^−5 M
# Excerpt: as §1
row,SMILES,Cellular growth rate (%)
1,"CCN(CC)CCC(=O)Nc1ccc2c(c1)C(=O)c1cc(NC(=O)CCN(CC)CC)ccc1C2=O [Compound 16, 2,7-Bis[3-(diethylamino)propionamido]anthraquinone]",8.10

# Test system: KM12
# Assay: as above
# Format: cell-based
# Conditions: KM12, colon cancer; 1.0×10^−5 M
# Excerpt: as §1
row,SMILES,Cellular growth rate (%)
1,"CCN(CC)CCC(=O)Nc1ccc2c(c1)C(=O)c1cc(NC(=O)CCN(CC)CC)ccc1C2=O [Compound 16, 2,7-Bis[3-(diethylamino)propionamido]anthraquinone]",21.82

# Test system: M14
# Assay: as above
# Format: cell-based
# Conditions: M14, melanoma; 1.0×10^−5 M
# Excerpt: as §1
row,SMILES,Cellular growth rate (%)
1,"CCN(CC)CCC(=O)Nc1ccc2c(c1)C(=O)c1cc(NC(=O)CCN(CC)CC)ccc1C2=O [Compound 16, 2,7-Bis[3-(diethylamino)propionamido]anthraquinone]",62.79

# Test system: MALME-3M
# Assay: as above
# Format: cell-based
# Conditions: melanoma, 1.0×10^−5 M
# Excerpt: as §1
row,SMILES,Cellular growth rate (%)
1,"CCN(CC)CCC(=O)Nc1ccc2c(c1)C(=O)c1cc(NC(=O)CCN(CC)CC)ccc1C2=O [Compound 16, 2,7-Bis[3-(diethylamino)propionamido]anthraquinone]",62.39

# Test system: MDA-MB-231/ATCC
# Assay: as above
# Format: cell-based
# Conditions: breast cancer, 1.0×10^−5 M
# Excerpt: as §1
row,SMILES,Cellular growth rate (%)
1,"CCN(CC)CCC(=O)Nc1ccc2c(c1)C(=O)c1cc(NC(=O)CCN(CC)CC)ccc1C2=O [Compound 16, 2,7-Bis[3-(diethylamino)propionamido]anthraquinone]",31.32

# Test system: MDA-MB-435
# Assay: as above
# Format: cell-based
# Conditions: MDA-MB-435, breast cancer; 1.0×10^−5 M
# Excerpt: as §1
row,SMILES,Cellular growth rate (%)
1,"CCN(CC)CCC(=O)Nc1ccc2c(c1)C(=O)c1cc(NC(=O)CCN(CC)CC)ccc1C2=O [Compound 16, 2,7-Bis[3-(diethylamino)propionamido]anthraquinone]",71.07

# Test system: MOLT-4
# Assay: as above
# Format: cell-based
# Conditions: MOLT-4, leukemia; 1.0×10^−5 M
# Excerpt: as §1
row,SMILES,Cellular growth rate (%)
1,"CCN(CC)CCC(=O)Nc1ccc2c(c1)C(=O)c1cc(NC(=O)CCN(CC)CC)ccc1C2=O [Compound 16, 2,7-Bis[3-(diethylamino)propionamido]anthraquinone]",5.42

# Test system: NCI-H23
# Assay: as above
# Format: cell-based
# Conditions: NCI-H23, non-small cell lung cancer; 1.0×10^−5 M
# Excerpt: as §1
row,SMILES,Cellular growth rate (%)
1,"CCN(CC)CCC(=O)Nc1ccc2c(c1)C(=O)c1cc(NC(=O)CCN(CC)CC)ccc1C2=O [Compound 16, 2,7-Bis[3-(diethylamino)propionamido]anthraquinone]",30.34

# Test system: NCl-H460
# Assay: as above
# Format: cell-based
# Conditions: NCl-H460, non-small cell lung cancer; 1.0×10^−5 M
# Excerpt: as §1
row,SMILES,Cellular growth rate (%)
1,"CCN(CC)CCC(=O)Nc1ccc2c(c1)C(=O)c1cc(NC(=O)CCN(CC)CC)ccc1C2=O [Compound 16, 2,7-Bis[3-(diethylamino)propionamido]anthraquinone]",9.50

# Test system: NCl-H522
# Assay: as above
# Format: cell-based
# Conditions: NCl-H522, non-small cell lung cancer; 1.0×10^−5 M
# Excerpt: as §1
row,SMILES,Cellular growth rate (%)
1,"CCN(CC)CCC(=O)Nc1ccc2c(c1)C(=O)c1cc(NC(=O)CCN(CC)CC)ccc1C2=O [Compound 16, 2,7-Bis[3-(diethylamino)propionamido]anthraquinone]",27.98

# Test system: OVCAR-8
# Assay: as above
# Format: cell-based
# Conditions: OVCAR-8, ovarian cancer; 1.0×10^−5 M
# Excerpt: as §1
row,SMILES,Cellular growth rate (%)
1,"CCN(CC)CCC(=O)Nc1ccc2c(c1)C(=O)c1cc(NC(=O)CCN(CC)CC)ccc1C2=O [Compound 16, 2,7-Bis[3-(diethylamino)propionamido]anthraquinone]",4.30

# Test system: RPMI-8226
# Assay: as above
# Format: cell-based
# Conditions: RPMI-8226, leukemia; 1.0×10^−5 M
# Excerpt: as §1
row,SMILES,Cellular growth rate (%)
1,"CCN(CC)CCC(=O)Nc1ccc2c(c1)C(=O)c1cc(NC(=O)CCN(CC)CC)ccc1C2=O [Compound 16, 2,7-Bis[3-(diethylamino)propionamido]anthraquinone]",−29.02

# Test system: SF-539
# Assay: as above
# Format: cell-based
# Conditions: SF-539, CNS cancer; 1.0×10^−5 M
# Excerpt: as §1
row,SMILES,Cellular growth rate (%)
1,"CCN(CC)CCC(=O)Nc1ccc2c(c1)C(=O)c1cc(NC(=O)CCN(CC)CC)ccc1C2=O [Compound 16, 2,7-Bis[3-(diethylamino)propionamido]anthraquinone]",37.15

# Test system: SK-MEL-28
# Assay: as above
# Format: cell-based
# Conditions: SK-MEL-28, melanoma; 1.0×10^−5 M
# Excerpt: as §1
row,SMILES,Cellular growth rate (%)
1,"CCN(CC)CCC(=O)Nc1ccc2c(c1)C(=O)c1cc(NC(=O)CCN(CC)CC)ccc1C2=O [Compound 16, 2,7-Bis[3-(diethylamino)propionamido]anthraquinone]",2.56

# Test system: SK-MEL-2
# Assay: as above
# Format: cell-based
# Conditions: SK-MEL-2, melanoma; 1.0×10^−5 M
# Excerpt: as §1
row,SMILES,Cellular growth rate (%)
1,"CCN(CC)CCC(=O)Nc1ccc2c(c1)C(=O)c1cc(NC(=O)CCN(CC)CC)ccc1C2=O [Compound 16, 2,7-Bis[3-(diethylamino)propionamido]anthraquinone]",−60.38

# Test system: SK-MEL-5
# Assay: as above
# Format: cell-based
# Conditions: SK-MEL-5, melanoma; 1.0×10^−5 M
# Excerpt: as §1
row,SMILES,Cellular growth rate (%)
1,"CCN(CC)CCC(=O)Nc1ccc2c(c1)C(=O)c1cc(NC(=O)CCN(CC)CC)ccc1C2=O [Compound 16, 2,7-Bis[3-(diethylamino)propionamido]anthraquinone]",82.75

# Test system: SK-OV-3
# Assay: as above
# Format: cell-based
# Conditions: SK-OV-3, ovarian cancer; 1.0×10^−5 M
# Excerpt: as §1
row,SMILES,Cellular growth rate (%)
1,"CCN(CC)CCC(=O)Nc1ccc2c(c1)C(=O)c1cc(NC(=O)CCN(CC)CC)ccc1C2=O [Compound 16, 2,7-Bis[3-(diethylamino)propionamido]anthraquinone]",44.02

# Test system: SN12C
# Assay: as above
# Format: cell-based
# Conditions: renal cancer, 1.0×10^−5 M
# Excerpt: as §1
row,SMILES,Cellular growth rate (%)
1,"CCN(CC)CCC(=O)Nc1ccc2c(c1)C(=O)c1cc(NC(=O)CCN(CC)CC)ccc1C2=O [Compound 16, 2,7-Bis[3-(diethylamino)propionamido]anthraquinone]",8.63

# Test system: SNB-19
# Assay: as above
# Format: cell-based
# Conditions: SNB-19, CNS cancer; 1.0×10^−5 M
# Excerpt: as §1
row,SMILES,Cellular growth rate (%)
1,"CCN(CC)CCC(=O)Nc1ccc2c(c1)C(=O)c1cc(NC(=O)CCN(CC)CC)ccc1C2=O [Compound 16, 2,7-Bis[3-(diethylamino)propionamido]anthraquinone]",75.84

# Test system: SNB-75
# Assay: as above
# Format: cell-based
# Conditions: SNB-75, CNS cancer; 1.0×10^−5 M
# Excerpt: as §1
row,SMILES,Cellular growth rate (%)
1,"CCN(CC)CCC(=O)Nc1ccc2c(c1)C(=O)c1cc(NC(=O)CCN(CC)CC)ccc1C2=O [Compound 16, 2,7-Bis[3-(diethylamino)propionamido]anthraquinone]",46.62

# Test system: T-47D
# Assay: as above
# Format: cell-based
# Conditions: breast cancer, 1.0×10^−5 M
# Excerpt: as §1
row,SMILES,Cellular growth rate (%)
1,"CCN(CC)CCC(=O)Nc1ccc2c(c1)C(=O)c1cc(NC(=O)CCN(CC)CC)ccc1C2=O [Compound 16, 2,7-Bis[3-(diethylamino)propionamido]anthraquinone]",68.62

# Test system: U251
# Assay: as above
# Format: cell-based
# Conditions: U251, CNS cancer; 1.0×10^−5 M
# Excerpt: as §1
row,SMILES,Cellular growth rate (%)
1,"CCN(CC)CCC(=O)Nc1ccc2c(c1)C(=O)c1cc(NC(=O)CCN(CC)CC)ccc1C2=O [Compound 16, 2,7-Bis[3-(diethylamino)propionamido]anthraquinone]",21.65

# Test system: UACC-257
# Assay: as above
# Format: cell-based
# Conditions: UACC-257, melanoma; 1.0×10^−5 M
# Excerpt: as §1
row,SMILES,Cellular growth rate (%)
1,"CCN(CC)CCC(=O)Nc1ccc2c(c1)C(=O)c1cc(NC(=O)CCN(CC)CC)ccc1C2=O [Compound 16, 2,7-Bis[3-(diethylamino)propionamido]anthraquinone]",−14.46

# Test system: UACC-62
# Assay: as above
# Format: cell-based
# Conditions: UACC-62, melanoma; 1.0×10^−5 M
# Excerpt: as §1
row,SMILES,Cellular growth rate (%)
1,"CCN(CC)CCC(=O)Nc1ccc2c(c1)C(=O)c1cc(NC(=O)CCN(CC)CC)ccc1C2=O [Compound 16, 2,7-Bis[3-(diethylamino)propionamido]anthraquinone]",44.45
